This note sets out measurements from patent publication US20110077230A1, “COPPER ORGANOCOMPLEXES, USE THEREOF AS ANTITUMOR MEANS AND FOR PROTECTING HEALTHY TISSUE FROM IONIZING RADIATION” (CHARITE - UNIVERSITATSMEDIZIN BERLIN, priority 2008, published 2011).

For data set [1], the system named is neutrophils. Put plainly: Antioxidant properties: ROS formation in neutrophils. It counts as cell-based, male mice of the NMRI line. Particulars: triggered by PMA and fMLF, depending on the dosage. An excerpt:
The complexes A and C show a pronounced effect as antioxidant in an environment having an excess of reactive oxygen species (ROS). Thus, ROS formation in neutrophils obtained from male mice of the NMRI line was triggered by two activators: phorbol 12-myristate 13-acetate (PMA) and N-formyl-methionyl-leucylphenylalanine (fMLF).

Data set [2] relates to Ehrlich ascites adenocarcinoma. Kind of data set: Ehrlich ascites adenocarcinoma in mice. It counts as in vivo, white mice. On the procedure:
The tumor was implanted intraabdominally in white mice of no particular race.
Group I received complex A orally as a suspension in olive oil at a dosage of 10 mg/kg 3, 4, 5, 6, 7, 8, 9 and 10 days after tumor implantation.
Group II received the same treatment, but using sarcolysine instead of complex A.
Group III received no treatment.
The animals were sacrificed and examined on the 11th day after tumor implantation.

The test system of data set [3] is melanoma B 16. Kind of data set: B 16 melanoma in mice, intraabdominal administration. The class given is in vivo, mice of the line C 57Bl. Particulars: 5 mg/kg intraabdominally. On the procedure: The melanoma B 16 was implanted in 20 mice of the line C 57Bl by subcutaneous injection into the right thigh. The animals were divided into four groups of five mice each. Group I received complex A at a dosage of 7 mg/kg, dissolved in DMSO, which was administered intraabdominally in a 4% suspension in physiological saline. Each administration was performed 3, 5, 7 and 9 days after trans-plantation of the tumor.
Group II was treated as group I, but using a dosage of 5 mg/kg.
Group III was treated as group I, but received 5 mg/kg of melphalan hydrochloride instead of complex A.
Group IV remained untreated.

In data set [4] the test system is human mammary gland tumor cells, T2N1M0 stage. Kind of data set: In vitro effect on human mammary gland tumor cells, Experiment 1. It counts as cell-based. On the procedure:
(§1) Tumor cells were collected from the surgical material of female patients suffering from mammary carcinoma at two different stages. The tumor tissue was added with sterile 0.25% trypsin solution and centrifuged repeatedly in RPMI-1640 nutrient medium for 15 minutes at 1500 revolutions per minute. The amount of resulting cells was counted and the suspension of tumor cells divided into five equal groups. The RPMI-1640 nutrient medium was added with 12% fetal calf serum. The cells were incubated for 48 h at 37° C. in a 5% CO2 stream.
(§2) The preparations were dissolved in 4% DMSO and physiological saline and acidified with HCl.
(§3) Two experiments were performed using cancer cells derived from tumors of different stages. To differentiate the various stages of cancer, the TNM classification is used internationally which takes into account the tumor size (T), lymph node affection (N=nodal status) and the extent of metastasis (M).
(T2: tumor up to 5 cm; N1; metastases in 3 lymph nodes; M0: no distant metastases). A suspension including 40 million cells was added with 50 μl of each preparation.
(§4) The 5 groups with cancer cells received the following:
(§5) After subjecting the preparations to flow incubation for 60 minutes, trypan blue stained cells were produced, and dead cells and apoptosis could be determined; dead cells and apoptotic cells were determined in specific units of time and morphological findings.

For data set [5], the system named is colon adenocarcinoma tumor (AKATOL). Put plainly: Transplanted colon adenocarcinoma (AKATOL), peroral administration. The class given is in vivo, mice of the BALB line. Conditions: 10 mg/kg peroral in olive oil. Here is the method: Tumor cells were transplanted in mice of the BALB line by injection into the thighs. 3 of 4 groups received the respective preparation on the peroral route 3, 4, 5, 6, 7, 8, 9 and 10 days after tumor implantation.
Group I: 10 mg/kg complex A suspended in olive oil.
Group II: 5 mg/kg complex A suspended in olive oil.
Group III: 10 mg/kg sarcolysine suspended in olive oil.
On day 21 of the experiment the animals were sacrificed and examined.

For data set [6], the system named is human mammary gland tumor cells, T4N2M0 stage. Kind of data set: In vitro effect on human mammary gland tumor cells, Experiment 2. It counts as cell-based. Here is the method: as §1, §2, §3
(T3: large tumor spreading into the tissue surrounding the breast; N2: metastases up to 9 axillary lymph nodes, M0: no distant metastases). A suspension including 40 million cells was added with 50 μl of each preparation.
as §4, §5

Take `NC(Cc1ccc(N(CCCl)CCCl)cc1)C(=O)O` (racemic) [sarcolysine, 4-[bis(2-chloroethyl)amino]-D,L-phenylalanine, reference compound]: in data set [1], the “formation of ROS in neutrophils” value was “hardly achieved”. In data set [2] (10 mg/kg orally), the “% inhibition” value was 47.4%, the “Average MI of bone marrow” value is listed as 0.52 ± 0.26 ‰ and the “Average MI of tumor cells” value was 2.0 ± 1.87 ‰. For the same molecule, in data set [2] (10 mg/kg orally in olive oil, days 3 to 10, day 11), the “Average number of tumor cells” value is recorded as 77 10^6. In data set [3], the “Apoptotic index AI” value was 3.07 ‰; the “Bone marrow index MI BM” value is 1.88 ‰; the “Inhibition of tumor growth, mass percent” value is “mass percent 62.87%”; the “Inhibition of tumor growth, volume percent” value was “volume percent 35.78%”. Also, the “Mitotic index of tumor cells MI” value in data set [3] is recorded as 2.43 ‰. In addition, in data set [3] (days 3, 5, 7, 9), the “Average volume of tumor” value was found to be 1.4 cm^3 and the “Average weight of tumor” value came out at 482.6 mg. For the same molecule, in data set [4] (Experiment 1, T2N1M0), the “Living cells, %” value was 54.0 ± 2.22%. Further, the “Dead cells, %” value in data set [4] (Experiment 1, T2N1M0, 40 million cells, 50 μl of preparation) is 46.0 ± 2.22%. Besides, the “% inhibition” value in data set [5] was found to be 43%. Also, the “Average weight of tumor” value in data set [5] (days 3 to 10, day 21) worked out at 1.85 g. The “Living cells, %” value in data set [6] (Experiment 2, T4N2M0) amounted to 51.0 ± 2.23%. For the same molecule, in data set [6] (Experiment 2, T4N2M0, 40 million cells, 50 μl of preparation), the “Dead cells, %” value stood at 49.0 ± 2.23%.
As for `O=c1[nH]c(=O)n(C2CCCO2)cc1F` (stereo not shown) [tegafur, N-(2-furanidil)-5-fluorouracil, reference compound], the “formation of ROS in neutrophils” value in data set [1] is recorded as “hardly achieved”.
